Experimental data published in patent publication US20010034887A1, “Transformation of guar” (priority 1994, published 2001).
Counter-ions that a name gives are not always drawn.

Test system: guar explants
Assay: Agrobacterium-mediated transformation of guar cotyledon explants: selection, shoot harvest and GUS test
Assay type: cell-based, Cyamopsis tetragonoloba
Experimental: Cotyledons with about 2 mm of hypocotyl were excised from 12 day old seedlings. The cotyledons were then torn apart using a tweezers to create wound surfaces and placed in the Agrobacterium-suspension for 30 min.
Co-cultivation proceeded for 3 days at 25° C. and a 12 h/12 h day/night regime. After co-culture the explants were washed with 1/10 MS-medium, to which 100 mg/l carbenicillin, 100 mg/l cefotaxime and 1000 mg/l lysozyme had been added, 2-3 times for 45 min. while stirring at 100 rpm.
The explants were transferred to selection medium and incubated as above (25° C., 12 h day/12 h night).
After 4 weeks, shoots larger than 3 mm were harvested and transferred to shoot medium. After 10-14 days the shoots were tested for activity of the reporter gene β-glucuronidase (GUS), see below. GUS-positive shoots were transferred to fresh shoot medium while the GUS-negative shoots were discarded.
After the first harvest, explants (from which shoots had been harvested) were transferred to a second selection medium with a lower kanamycin concentration (50 mg/l) . After another 4 weeks shoots were harvested and GUS-tested. The positive shoots were transferred to fresh medium, while the negatives were discarded.
Tips of young leaves were excised and transferred to a multi-dish well containing 200 μl X-gluc solution. After incubation for 16 h at 35° C. the leaf tips were destained with 96% ethanol and the degree of blue stain was determined under a microscope.

[1] = 0.1-2 mg/l PCIB during selection
[2] = kanamycin sulfate 125 mg/l in selection medium, 1600 explants, strain EHA 101
[3] = kanamycin sulfate 135 mg/l in selection medium, 1600 explants, strain EHA 101
[4] = kanamycin sulfate 145 mg/l in selection medium, 1600 explants, strain EHA 101
[5] = thidiazuron 0.3 mg/l, 742 explants
[6] = thidiazuron 1.0 mg/l, 741 explants
[7] = thidiazuron 3.0 mg/l, 1522 explants
[8] = thidiazuron 4.5 mg/l, 797 explants

For `O.O.O.O.O.O.[Cl][Ni][Cl]` [NiCl2, 6H2O], the “No. of GUS+ shoots” value (NiCl2, 6H2O 1.0 mg/l with BAP 1.0 mg/l, 1200 explants, EHA 101) was 4, the “No. of GUS+ shoots” value (NiCl2, 6H2O 1.0 mg/l with BAP 5.0 mg/l, 1200 explants, EHA 101) was 4 and the higher transformation frequency (addition of 1 mg/l NiCl2, 6H2O) was 2-4 times.
With `CC1(C)[C@H](C(=O)O)N2C(=O)C[C@H]2S1(=O)=O` [Sulbactam, sulbactam] the “No. of GUS+ shoots” value (sulbactam 100 mg/l with carbenicillin 50 mg/l and cefotaxime 50 mg/l, 800 explants, EHA 101) was 9 and the “No. of GUS+ shoots” value (sulbactam 100 mg/l with carbenicillin 100 mg/l and cefotaxime 100 mg/l, 800 explants, EHA 101) was 5.
For `CC(C)(Oc1ccc(Cl)cc1)C(=O)O` [PCIB, 2-(p-chlorophenoxy)-2-methylpropionic acid], the amount of callus [1] was “reduced the amount of callus significantly” and the “regeneration and number of transgenic shoots” value [1] was “enhanced regeneration and the number of transgenic shoots”.
With benzyladenine purine [BAP] the “total number of regenerated shoots on 5 mg/l BAP compared with 1 mg/l” value (5 mg/l vs 1 mg/l BAP in selection medium) was “about twice as high”, the “No. of GUS+ shoots” value (BAP 1.0 mg/l, NiCl2, 6H2O 0 mg/l, 1200 explants, EHA 101) was 1 and the “No. of GUS+ shoots” value (BAP 5.0 mg/l, NiCl2, 6H2O 0 mg/l, 1200 explants, EHA 101) was 2.
With silver thiosulfate [STS] the “No. of GUS+ shoots” value (STS 2.5 μM, calculated per 1000 explants, EHA 101) was 12, the “No. of GUS+ shoots” value (STS 5.0 μM, calculated per 1000 explants, EHA 101) was 8 and the “No. of GUS+ shoots” value (STS 10.0 μM, calculated per 1000 explants, EHA 101) was 7. For the same molecule, the shoot quality (presence of STS vs absence) was “significantly improved shoot quality”.
`NC[C@H]1O[C@H](O[C@H]2[C@H](O)[C@@H](O[C@H]3O[C@H](CO)[C@@H](O)[C@H](N)[C@H]3O)[C@H](N)C[C@@H]2N)[C@H](O)[C@@H](O)[C@@H]1O` [Kanamycin sulf., kanamycin sulfate] was tested, and the regeneration frequencies (100 mg/l kanamycin or less) was about 100%, the “No. of GUS+ shoots” value [2] was 3 and the “No. of regenerated shoots” value [2] was 21. For the same molecule, the “No. of GUS+ shoots” value [3] was 5, the “No. of regenerated shoots” value [3] was 19 and the “No. of GUS+ shoots” value [4] was 8. For the same molecule, the “No. of regenerated shoots” value [4] was 15, the “transgenic shoots found at the second harvest” value (second harvest, kanamycin concentration reduced) was “About 50%” and the “optimal kanamycin sulfate concentration in the selection medium” value (selection medium) was 145 mg/L.
With `CC1(C)S[C@@H]2[C@H](NC(=O)C(C(=O)O)c3ccccc3)C(=O)N2[C@H]1C(=O)O` (some centres unmarked) [Carbenicil., carbenicillin] the “No. of GUS+ shoots” value (carbenicillin 800 mg/l, cefotaxime 0, sulbactam 0, 800 explants, EHA 101) was 2.
`O=C(Nc1ccccc1)Nc1cnns1` [Thidiazuron, thidiazuron] was tested, and the “subsequent cloning of the transgenic shoots” value was “beneficial for the subsequent cloning of the transgenic shoots”, the “increase of transformation frequencies” value (TDZ 0.3-3.0 mg/l vs no TDZ) was 1.5-1.8 fold and the “optimum TDZ concentrations in the selection media” value (selection media) was 0.3 to 3.0 mg/L. For the same molecule, the “No. of GUS+ shoots” value [5] was 8, the “Transform. freq. (%)” value [5] was 1.08% and the “No. of GUS+ shoots” value [6] was 9. The “Transform. freq. (%)” value [6] was 1.21%, the “No. of GUS+ shoots” value [7] was 16 and the “Transform. freq. (%)” value [7] was 1.05%. For the same molecule, the “No. of GUS+ shoots” value [8] was 5 and the “Transform. freq. (%)” value [8] was 0.63%.
